Test results reported in the supplement of paper PMC5579334.
± gives the standard deviation of the averaged measurements.

Columns and labels:
[1] = test system: HSC1 (primary human Schwann cells); assay: drug sensitivity score (DSS, CellTiter-Glo viability, 72 h) (DSS (dimensionless)); higher = more sensitive; extreme values may be limits of the assay
In short: (§1)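 After seeding 750–1000 cells per well of MPNST cell lines or primary human Schwann cells into 384-well plates preprinted with each compound at five concentrations in 10-fold steps, plates were kept 72 h at 37 °C, 5% CO2. Viability was read as CellTiter-Glo ATP luminescence relative to vehicle and positive-control wells, with duplicates averaged where present. The data were fitted with four-parameter logistic models. Drug sensitivity score and relative IC50, censored at the top concentration, derive from the fits, and percent inhibition refers to the top concentration.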

[2] = test system: HSC2 (primary human Schwann cells); assay: as above
In short: as §1

S1507-2 [3] = assay: as above
In short: as §1

S462 [4] = assay: as above
In short: as §1

ST8814 [5] = assay: as above
In short: as §1

STS26T [6] = assay: as above
In short: as §1

[7] = test system: HSC1 (primary human Schwann cells); assay: drug sensitivity score (DSS, CellTox-Green cytotoxicity, 72 h) (DSS (dimensionless)); higher = more cytotoxic; extreme values may be limits of the assay
In short: (§2)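 For 72 h at 37 °C, MPNST cell lines and primary human Schwann cells were exposed in 384-well plates to five 10-fold compound dilutions. CellTox-Green, added before seeding at a final 1:1000 dilution, gave fluorescence from DNA released by disrupted cells. Signals were scaled to vehicle and positive-control wells, cultures failing plate quality control were left out, and four-parameter logistic fits were applied. Relative IC50 and drug sensitivity score were derived from the fits, with IC50 censored at the top concentration.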

[8] = test system: HSC2 (primary human Schwann cells); assay: as above
In short: as §2

S1507-2 [9] = assay: as above
In short: as §2

ST8814 [10] = assay: as above
In short: as §2

STS26T [11] = assay: as above
In short: as §2

[12] = test system: HSC1 (primary human Schwann cells); assay: % inhibition of CellTiter-Glo viability at highest tested concentration (72 h), relative to DMSO and benzethonium chloride controls; higher = more inhibition
In short: as §1

[13] = test system: HSC2 (primary human Schwann cells); assay: as above
In short: as §1

S1507-2 [14] = assay: as above
In short: as §1

S462 [15] = assay: as above
In short: as §1

ST8814 [16] = assay: as above
In short: as §1

STS26T [17] = assay: as above
In short: as §1

Compound | drug sensitivity score [1] | drug sensitivity score [2] | drug sensitivity score (S1507-2 [3]) | drug sensitivity score (S462 [4]) | drug sensitivity score (ST8814 [5]) | drug sensitivity score (STS26T [6]) | drug sensitivity score [7] | drug sensitivity score [8] | drug sensitivity score (S1507-2 [9]) | drug sensitivity score (ST8814 [10]) | drug sensitivity score (STS26T [11]) | % inhibition [12] [%] | % inhibition [13] [%] | % inhibition (S1507-2 [14]) [%] | % inhibition (S462 [15]) [%] | % inhibition (ST8814 [16]) [%] | % inhibition (STS26T [17]) [%]
Cc1c(C(=O)Nc2ccc(N3C[C@@H](C)O[C@@H](C)C3)nc2)cccc1-c1ccc(OC(F)(F)F)cc1 [Erismodegib] (max concentration tested 10000 nM) | 0 | 0 | 0.871 ± 1.2 | 0 | 0 | 0.451 | 1.48 | 4.95 | 14.8 ± 20 | 0 | 0 | 9.09 | 8.65 | 9.49 ± 1.4 | 13.2 ± 2.2 | 1.35 | 16.9
Cc1sc2c(c1C)C(c1ccc(Cl)cc1)=N[C@@H](CC(=O)OC(C)(C)C)c1nnc(C)n1-2 [(+)JQ1] (max concentration tested 10000 nM) | 10.2 | 10.4 | 18.5 ± 0.8 | 11.3 ± 0.7 | 14.8 | 8.02 | 0 | 0 | 12.7 ± 1.7 | 5.02 | 0 | 61.1 | 66 | 86.1 ± 1 | 69.3 ± 1.7 | 75.6 | 43.2
COCC1(CO)C(=O)C2CCN1CC2 (stereo not given) [Prima-1 Met] (max concentration tested 10000 nM) | 1.87 | 2.14 | 2.75 ± 3.9 | 1.58 ± 1.1 | 0 | 0.507 | 0 | 0 | 7.59 ± 11 | 0 | 0 | 26.3 | 32.4 | 6.31 ± 9.8 | 19.1 ± 8.4 | 8.31 | 14.6
Oc1ncc(N(CCCl)CCCl)c(O)n1 [Uracil mustard] (max concentration tested 10000 nM) | 0 | 0 | 0 | 0 | 0 | 0 | 0 | 0 | 0 | 0 | 0 | 5.98 | 5.29 | -1.65 ± 8.9 | -1.32 ± 0.75 | 10.8 | 1.52
CCCC(CCC)C(=O)O [Valproic acid aq] (max concentration tested 1000000 nM) | 4.34 | 4.4 | 1.59 ± 0.097 | 2.44 ± 0.31 | 3.83 | 1.5 | 0 | 0 | 0 | 0.307 | 0 | 68.2 | 59 | 20.7 ± 3.2 | 31.3 ± 17 | 44.4 | 28.3
CN(C)C(=N)NC(=N)N [Metformin aq] (max concentration tested 100000 nM) | 0 | 0 | 0 | 0 | 0 | 0 | 0 | 0 | 0.0766 ± 0.11 | 0 | 0 | -13.1 | -15.5 | 6.36 ± 5.3 | 1.42 ± 6.1 | 7.41 | 5.16
Cn1cc(C[C@@H](N)C(=O)O)c2ccccc21 [1-methyl-D-tryptophan aq] (max concentration tested 5000 nM) | 0 | 0 | 0 | 0 | 0 | 0 | 0 | 0.888 | 0.475 ± 0.58 | 0 | 0.0551 | 4.52 | 1.85 | 0.132 ± 6.3 | 0.824 ± 5.1 | -2.14 | -5.75
Cn1nnc2c(C(N)=O)ncn2c1=O [Temozolomide] (max concentration tested 10000 nM) | 0 | 0 | 0.17 ± 0.24 | 0 | 0.0241 | 0 | 0 | 0 | 0 | 0 | 0 | 8.86 | 2.06 | 9.8 ± 9.4 | 2.61 ± 0.65 | 11.9 | 8.32
CCNC(=O)c1noc(-c2cc(C(C)C)c(O)cc2O)c1-c1ccc(CN2CCOCC2)cc1 [NVP-AUY922] (max concentration tested 1000 nM) | 21.6 | 22.6 | 20.5 ± 1.9 | 19.7 ± 3.3 | 19.4 | 18.3 | 19.6 | 20.4 | 20.6 ± 3.5 | 8.57 | 11.4 | 98.2 | 97.1 | 97.933 ± 0.086 | 98 ± 1.7 | 98.2 | 92.2
CCN(CC)CCCC(C)Nc1ccnc2cc(Cl)ccc12 (stereo not given) [Chloroquine aq] (max concentration tested 100000 nM) | 9.99 | 9.45 | 20.19 ± 0.053 | 13 ± 1.7 | 17.4 | 14.5 | 9.24 | 8.02 | 18.3 ± 0.29 | 18.6 | 15.1 | 94.7 | 94.5 | 95.13 ± 0.85 | 95.68 ± 0.34 | 96.1 | 96.2
